# From ChEMBL document CHEMBL1201862, “PubChem BioAssay data set” (2004)
#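 These data come from cells grown in 96-well plates and exposed to compound for 48 hours at five concentrations. The concentration for 50% growth inhibition is given as GI50.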 Calls of active or inactive are those of the source. Cut-off read from the data, not from the text of the source: active = GI50 up to about 1.1 µM and inactive = higher.
# Assays:
# Test in all cases: inhibition of tumour cell growth, NCI panel, 48 h
# SNB-78 = test system: SNB-78
# RXF 631 = test system: RXF 631
# LXFL 529 = test system: LXFL 529
# HOP-18 = test system: HOP-18
# DLD-1 = test system: DLD-1
# XF498 = test system: XF498
# DMS-273 = test system: DMS-273
# KM-20L2 = test system: KM-20L2
# M19-MEL = test system: M19-MEL
Structure (SMILES),GI50 (SNB-78),GI50 (RXF 631),GI50 (LXFL 529),GI50 (HOP-18),GI50 (DLD-1),GI50 (XF498),GI50 (DMS-273),GI50 (KM-20L2),GI50 (M19-MEL)
COc1ccc(C(=O)Cc2ccc(Br)cc2)cc1OC,> 100 µM (inactive),57.4 µM (inactive),> 100 µM (inactive),> 100 µM (inactive),> 100 µM (inactive),31.7 µM (inactive),> 100 µM (inactive),> 100 µM (inactive),> 100 µM (inactive)
CN(C)c1ccc(/N=C2/C=CC(=C(C#N)C#N)c3ccccc32)cc1,0.479 µM (active),,,1.14 µM (inactive),0.294 µM (active),0.261 µM (active),0.303 µM (active),0.209 µM (active),0.904 µM (active)
O=C1CN=C(c2ccccc2)c2ccncc2N1,> 100 µM (inactive),> 100 µM (inactive),> 100 µM (inactive),> 100 µM (inactive),> 100 µM (inactive),> 100 µM (inactive),> 100 µM (inactive),> 100 µM (inactive),> 100 µM (inactive)
C/C(CC(=O)Nc1cccc([N+](=O)[O-])c1)=N\NC(=O)CC#N,> 100 µM (inactive),> 100 µM (inactive),> 100 µM (inactive),,> 100 µM (inactive),> 100 µM (inactive),> 100 µM (inactive),> 100 µM (inactive),
COc1ccc(-c2nc(Sc3c([N+](=O)[O-])ncn3C)n[nH]2)cc1,4.22 µM (inactive),3.3 µM (inactive),3.12 µM (inactive),0.296 µM (active),2.49 µM (inactive),2.98 µM (inactive),2.18 µM (inactive),,4.9 µM (inactive)
COC(=O)C1(c2ccc(OC)cc2)NC(c2ccccc2)C2C(=O)N(c3ccc(OC)cc3)C(=O)C21 (configuration not stated),> 100 µM (inactive),> 100 µM (inactive),> 100 µM (inactive),< 0.01 µM (active),> 100 µM (inactive),> 100 µM (inactive),> 100 µM (inactive),> 100 µM (inactive),
CC(=O)c1c2c(cc3c1CC1(C3)Cc3cc4c(c(C(=O)O)c3C1)CCC4)CCC2 (configuration not stated),55.6 µM (inactive),,40.7 µM (inactive),79.8 µM (inactive),37.1 µM (inactive),57.1 µM (inactive),35.6 µM (inactive),,37 µM (inactive)
C/C(=N\O)C(CN(C)C)C(c1ccccc1)c1c(O)c2ccccc2oc1=O (configuration not stated),> 100 µM (inactive),,> 100 µM (inactive),,> 100 µM (inactive),> 100 µM (inactive),> 100 µM (inactive),> 100 µM (inactive),> 100 µM (inactive)
CN(c1ccccc1)c1nc(=[N+]2CCCC2)ss1.[O-][Cl+3]([O-])([O-])[O-],> 100 µM (inactive),20.6 µM (inactive),> 100 µM (inactive),> 100 µM (inactive),,,6.56 µM (inactive),> 100 µM (inactive),
Cc1cc(C)nc(NS(=O)(=O)c2ccc(NC(=O)COC(=O)c3cccc4c(=O)c5ccccc5[nH]c34)cc2)n1,82.2 µM (inactive),,39.8 µM (inactive),,45.7 µM (inactive),33.3 µM (inactive),41.2 µM (inactive),38.6 µM (inactive),20.4 µM (inactive)
CN(C)C(=N)NC(=S)N(C)C,> 100 µM (inactive),> 100 µM (inactive),> 100 µM (inactive),> 100 µM (inactive),> 100 µM (inactive),> 100 µM (inactive),> 100 µM (inactive),> 100 µM (inactive),> 100 µM (inactive)
c1ccc2c(c1)[nH]c1c2ncc2[nH]c3ccccc3c21,4.95 µM (inactive),2.16 µM (inactive),3.64 µM (inactive),2.88 µM (inactive),3.44 µM (inactive),1.78 µM (inactive),2.45 µM (inactive),3.71 µM (inactive),5.35 µM (inactive)
O=C1CCCCCCCCCCC1CN1CCCCC1 (configuration not stated),> 100 µM (inactive),,> 100 µM (inactive),,54.8 µM (inactive),89.5 µM (inactive),> 100 µM (inactive),31.3 µM (inactive),> 100 µM (inactive)
Cc1ccccc1NC(=O)C1C(=O)N(c2ccccc2C)C(=O)/C1=N\NC(N)=S (configuration not stated),,> 100 µM (inactive),> 100 µM (inactive),,> 100 µM (inactive),> 100 µM (inactive),> 100 µM (inactive),> 100 µM (inactive),
CC(=O)OC1CC[C@@]2(C)C(CC(OC3OC(CO)C(O)C(O)C3O)[C@]3(C)C2CCC24CC23CC[C@H]4C(C)CC(O)[C@@H](O)C(C)(C)O)C1(C)C (some centres not stated),> 5 µM (inactive),29 µM (inactive),8.99 µM (inactive),14 µM (inactive),15.5 µM (inactive),,18.2 µM (inactive),19.9 µM (inactive),8.07 µM (inactive)
CCOC(=O)[C@H]1Nc2ccc(C)cc2C2c3ccccc3CC21 (some centres not stated),> 100 µM (inactive),,> 100 µM (inactive),> 100 µM (inactive),> 100 µM (inactive),,> 100 µM (inactive),> 100 µM (inactive),> 100 µM (inactive)
Nc1cc[nH]c(=O)n1,> 100 µM (inactive),> 100 µM (inactive),> 100 µM (inactive),> 100 µM (inactive),> 100 µM (inactive),> 100 µM (inactive),> 100 µM (inactive),> 100 µM (inactive),> 100 µM (inactive)
CC(=O)Oc1cc(Cl)c(OC(C)=O)c2c(OC(C)=O)c(C)c(O[Si](C)(C)C(C)(C)C)cc12,3.12 µM (inactive),,,,1.85 µM (inactive),17.5 µM (inactive),5.47 µM (inactive),17.4 µM (inactive),
CC(=O)CC(=O)ON(C)C(=O)Cc1ccccc1,> 100 µM (inactive),,> 100 µM (inactive),,> 100 µM (inactive),> 100 µM (inactive),> 100 µM (inactive),> 100 µM (inactive),> 100 µM (inactive)
COc1cccc(OC)c1C(=O)OCc1ccccc1,,,> 100 µM (inactive),,> 100 µM (inactive),> 100 µM (inactive),,> 100 µM (inactive),> 100 µM (inactive)
O=C(Cn1ccnc1[N+](=O)[O-])c1ccc(F)cc1,,,> 100 µM (inactive),> 100 µM (inactive),,> 100 µM (inactive),> 100 µM (inactive),> 100 µM (inactive),> 100 µM (inactive)
O=S1(=O)C[C@@H](O)[C@H](O)CS1,> 100 µM (inactive),,> 100 µM (inactive),> 100 µM (inactive),> 100 µM (inactive),> 100 µM (inactive),> 100 µM (inactive),> 100 µM (inactive),> 100 µM (inactive)
O=C(Cc1nc2ccc(C(=O)c3ccccc3)cc2nc1O)C(=O)Nc1ccc(C(F)(F)F)cc1[N+](=O)[O-],81.1 µM (inactive),96.6 µM (inactive),35.8 µM (inactive),65.2 µM (inactive),> 100 µM (inactive),27.5 µM (inactive),99.1 µM (inactive),56.4 µM (inactive),58.1 µM (inactive)
Clc1ccc(Cl)c2[s+]snc12,> 100 µM (inactive),> 94.6 µM (inactive),34.2 µM (inactive),> 100 µM (inactive),44.6 µM (inactive),> 100 µM (inactive),27 µM (inactive),> 100 µM (inactive),54.7 µM (inactive)
C/C(=N/Nc1ccc([N+](=O)[O-])cc1[N+](=O)[O-])C(CC(C(=O)NCc1ccccc1)/C(C)=N\Nc1ccc([N+](=O)[O-])cc1[N+](=O)[O-])C(=O)NCc1ccccc1 (configuration not stated),9.16 µM (inactive),4.29 µM (inactive),10.9 µM (inactive),2.69 µM (inactive),12.1 µM (inactive),,8.02 µM (inactive),14.2 µM (inactive),11.5 µM (inactive)
N#COc1ccc(Oc2ccc(OC#N)cc2)cc1,> 100 µM (inactive),17.1 µM (inactive),> 100 µM (inactive),> 100 µM (inactive),63 µM (inactive),> 100 µM (inactive),,> 100 µM (inactive),> 100 µM (inactive)
N#CC1=C(c2ccccc2)NNC(c2ccc(Cl)cc2)CC1=O (configuration not stated),> 100 µM (inactive),> 10 µM (inactive),28.7 µM (inactive),> 100 µM (inactive),32.4 µM (inactive),26.2 µM (inactive),,24 µM (inactive),
